Results on 17 compounds are retold here after PMC9322123, “Design and Synthesis of New Pyrimidine-Quinolone Hybrids as Novel hLDHA Inhibitors” (Pharmaceuticals, 2022).

Each structure is given as a SMILES string. Entries after “also recorded” stand apart in the source; their conditions may differ. Where two headings read alike, the source gives them in different places. Some results are limits rather than exact numbers.

Data set [1] addresses T1, hLDHA (Homo sapiens, UniProt P00338).
T1 construct: purchased Abcam
Put plainly: hLDHA enzymatic assay (kinetic fluorometric, pyruvate substrate, NADH co-factor). It counts as biochemical. As to conditions: hLDHA, 1 mM pyruvate, 151 µM β-NADH, compounds 0.048–100 µM, n = 3. Here is the method:
The inhibitory activity of the pyrimidine-quinolone hybrids 10, 15, 19, and 24–31(a–c) against the hLDHA enzyme was measured by a kinetic spectrofluorometric assay.
hLDHA activity was determined throughout a fluorometric method with pyruvate as substrate and NADH co-factor, as previously reported and modified as described here: in each well, the final volume was set to 200 µL, and the final concentrations were 100 mM potassium phosphate buffer, 0.041 units/mL hLDHA (95%, specific activity >300 units/mg and concentration of 0.5 mg/mL, Abcam, Cambridge, United Kingdom), 151 µM β-NADH, 1 mM pyruvate (saturated conditions), and DMSO solutions (2%, v/v) of pure compounds at concentrations in the range of 0.048–100 µM. The reaction was initiated by the addition of pyruvate, and the NADH concentration decrease was measured for 10 min in a TECAN Infinite 200 Pro M Plex fluorescence plate reader at 28 °C, with excitation at 340 nm and emission at 460 nm. The percentage of activity for each measure was calculated by comparison between the maximum slope of each compound concentration and the maximum slope when no inhibitor (DMSO only) was in the well (100% enzymatic activity). The compound 3-[[3[(cyclopropylamino)sulfonyl]-7-(2,4-dimethoxy-5-pyrimidinyl)-4-quinolinyl]amino]-5-(3,5-difluorophenoxy)benzoic acid (GSK 2837808 A, Tocris, Minneapolis, MN, USA) was used as a positive control.
The measurements were obtained thrice, and data were expressed as the mean ± SD of n = 3 replicates for IC50 values. As-obtained data were later plotted in GraphPad Prism version 5.00 for Windows (GraphPad Software, La Jolla, CA, USA). Nonlinear regression analysis was chosen for dose response curve, representing the logarithm of inhibitor concentration vs. normalized enzymatic activity in order to calculate IC50 values.

Data set [2] concerns the target T1, hLDHA. Also on record: method as in PMID 25466195. To be noted: W31, ligand of complex 4R68; cited from earlier work.
Data set [3] in a line: Solubility as observed on handling. The format is physicochemical.

In turn, `O=c1[nH]c2ccccc2cc1CSc1cccc(Nc2nccc(-c3ccc4ccccc4c3)n2)c1` [Compound 35a, 3-(((3-((4-(Naphthalen-2-yl)pyrimidin-2-yl)amino)phenyl)thio)methyl)quinolin-2(1H)-one] yielded an IC50 against hLDHA [1] of 19.6 µM.
`O=c1[nH]c2ccc(Cl)cc2cc1CSc1ccccc1Nc1nccc(-c2ccc3ccccc3c2)n1` [Compound 26b, 6-Chloro-3-(((2-((4-(naphthalen-2-yl)pyrimidin-2-yl)amino)phenyl)thio)me-thyl)quinolin-2(1H)-one]: the IC50 against hLDHA [1] worked out at 20.3 µM.
The same measure, in the same setting: the figure for `COc1ccc2[nH]c(=O)c(CSc3ccccc3Nc3nccc(-c4ccc5ccccc5c4)n3)cc2c1` [Compound 26c, 6-Methoxy-3-(((2-((4-(naphthalen-2-yl)pyrimidin-2-yl)amino)phenyl)thio)methyl)quinolin-2(1H)-one] is 27.7 µM; for `O=c1[nH]c2ccccc2cc1CSc1ccc(Nc2nccc(-c3ccc(Cl)cc3)n2)cc1` [Compound 28a, 3-(((4-((4-(4-Chlorophenyl)pyrimidin-2-yl)amino)phenyl)thio)methyl)quinolin-2(1H)-one] it is over 100 µM; for `O=c1[nH]c2ccccc2cc1COc1ccccc1Oc1nccc(-c2ccc(Cl)cc2)n1` [Compound 19, 3-((2-((4-(4-Chlorophenyl)pyrimidin-2-yl)oxy)phenoxy)methyl)quinolin-2(1H)-one] it is over 100 µM.
As to `C[C@H](OC(=O)Cc1ccc(Cl)c(SC2=C(O)C[C@@H](c3c(Cl)cccc3Cl)CC2=O)c1)c1ccccc1` [Compound W31], the IC50 on hLDHA [2] was 0.006 µM.
On hLDHA [1], `COc1ccc2[nH]c(=O)c(CSc3ccc(Nc4nccc(-c5ccc(C(F)(F)F)cc5)n4)cc3)cc2c1` [Compound 29c, 6-Methoxy-3-(((4-((4-(4-(trifluoromethyl)phenyl)pyrimidin-2-yl)amino)phenyl)thio)methyl)quinolin-2(1H)-one] gave an IC50 of over 100 µM.
Still for that read-out and setting: the figure for `COc1ccc2[nH]c(=O)c(CSc3ccc(Nc4nccc(-c5ccc6ccccc6c5)n4)cc3)cc2c1` [Compound 30c, 6-Methoxy-3-(((4-((4-(naphthalen-2-yl)pyrimidin-2-yl)amino)phenyl)thio)methyl)quinolin-2(1H)-one] is over 100 µM.
On the same count and under the same terms, the figure for `O=c1[nH]c2ccc(Cl)cc2cc1CSc1ccccc1Nc1nccc(-c2ccc3c(c2)OCO3)n1` [Compound 27b, 3-(((2-((4-(Benzo[d][1,3]dioxol-5-yl)pyrimidin-2-yl)amino)phenyl)thio)methyl)-6-chloroquinolin-2(1H)-one] is 89 µM; for `O=c1[nH]c2ccccc2cc1CSc1ccccc1Nc1nccc(-c2ccc3ccccc3c2)n1` [Compound 26a, 3-(((2-((4-(Naphthalen-2-yl)pyrimidin-2-yl)amino)phenyl)thio)methyl)quinolin-2(1H)-one] it is 17.8 µM.
Same read-out and setting: the figure for `COc1ccc2[nH]c(=O)c(CSc3ccccc3Nc3nccc(-c4ccc(Cl)cc4)n3)cc2c1` [Compound 24c, 3-(((2-((4-(4-Chlorophenyl)pyrimidin-2-yl)amino)phenyl)thio)methyl)-6-methoxyquinolin-2(1H)-one] is 79.1 µM; for `O=c1[nH]c2ccccc2cc1CSc1ccccc1Nc1nccc(-c2ccc(Cl)cc2)n1` [Compound 24a, 3-(((2-((4-(4-Chlorophenyl)pyrimidin-2-yl)amino)phenyl)thio)methyl)quinolin-2(1H)-one] it is 31.5 µM.
As to `O=c1[nH]c2ccccc2cc1COc1ccc(Nc2nccc(-c3ccc(Cl)cc3)n2)cc1` [Compound 15, 3-((4-((4-(4-Chlorophenyl)pyrimidin-2-yl)amino)phenoxy)methyl)quinolin-2(1H)-one], the IC50 against hLDHA [1] is over 100 µM. Further, the “solubility (in words)” value in data set [3] is reported as “highly insoluble; also recorded: problems related with solubility”.
Compound `O=c1[nH]c2ccc(Cl)cc2cc1CSc1cccc(Nc2nccc(-c3ccc4ccccc4c3)n2)c1` [Compound 35b, 6-Chloro-3-(((3-((4-(naphthalen-2-yl)pyrimidin-2-yl)amino)phenyl)thio)me-thyl)quinolin-2(1H)-one] had a concentration for half-maximal inhibition (IC50) against hLDHA [1] of 24.6 µM.
Turning to `O=c1[nH]c2ccccc2cc1CSc1ccc(Nc2nccc(-c3ccc4ccccc4c3)n2)cc1` [Compound 30a, 3-(((4-((4-(Naphthalen-2-yl)pyrimidin-2-yl)amino)phenyl)thio)methyl)quinolin-2(1H)-one], at hLDHA [1], the half-inhibitory concentration (IC50) stood at 62.9 µM.
Same read-out and setting: to `COc1ccc2[nH]c(=O)c(CSc3ccccc3Nc3nccc(-c4ccc5c(c4)OCO5)n3)cc2c1` [Compound 27c, 3-(((2-((4-(Benzo[d][1,3]dioxol-5-yl)pyrimidin-2-yl)amino)phenyl)thio)methyl)-6-methoxyquinolin-2(1H)-one] belongs 60 µM.
Still for that read-out and setting: the figure for `O=c1[nH]c2ccccc2cc1CSc1ccccc1Nc1nccc(-c2ccc(C(F)(F)F)cc2)n1` [Compound 25a, 3-(((2-((4-(4-(Trifluoromethyl)phenyl)pyrimidin-2-yl)amino)phenyl)thio)methyl)quinolin-2(1H)-one] is 26.9 µM.

The term IC50 denotes the concentration that inhibits the measured activity by half.
